The values below come from ChEMBL document CHEMBL4619804, “Target-Based Identification and Optimization of 5-Indazol-5-yl Pyridones as Toll-like Receptor 7 and 8 Antagonists Using a Biochemical TLR8 Antagonist Competition Assay” (J Med Chem, 2020).

The IC50 is the concentration at which inhibition is half-maximal.

In assay [1] the target is T1, Toll-like receptor 9 (Homo sapiens, UniProt Q9NR96).
T1 sequence (Q9NR96 whole entry): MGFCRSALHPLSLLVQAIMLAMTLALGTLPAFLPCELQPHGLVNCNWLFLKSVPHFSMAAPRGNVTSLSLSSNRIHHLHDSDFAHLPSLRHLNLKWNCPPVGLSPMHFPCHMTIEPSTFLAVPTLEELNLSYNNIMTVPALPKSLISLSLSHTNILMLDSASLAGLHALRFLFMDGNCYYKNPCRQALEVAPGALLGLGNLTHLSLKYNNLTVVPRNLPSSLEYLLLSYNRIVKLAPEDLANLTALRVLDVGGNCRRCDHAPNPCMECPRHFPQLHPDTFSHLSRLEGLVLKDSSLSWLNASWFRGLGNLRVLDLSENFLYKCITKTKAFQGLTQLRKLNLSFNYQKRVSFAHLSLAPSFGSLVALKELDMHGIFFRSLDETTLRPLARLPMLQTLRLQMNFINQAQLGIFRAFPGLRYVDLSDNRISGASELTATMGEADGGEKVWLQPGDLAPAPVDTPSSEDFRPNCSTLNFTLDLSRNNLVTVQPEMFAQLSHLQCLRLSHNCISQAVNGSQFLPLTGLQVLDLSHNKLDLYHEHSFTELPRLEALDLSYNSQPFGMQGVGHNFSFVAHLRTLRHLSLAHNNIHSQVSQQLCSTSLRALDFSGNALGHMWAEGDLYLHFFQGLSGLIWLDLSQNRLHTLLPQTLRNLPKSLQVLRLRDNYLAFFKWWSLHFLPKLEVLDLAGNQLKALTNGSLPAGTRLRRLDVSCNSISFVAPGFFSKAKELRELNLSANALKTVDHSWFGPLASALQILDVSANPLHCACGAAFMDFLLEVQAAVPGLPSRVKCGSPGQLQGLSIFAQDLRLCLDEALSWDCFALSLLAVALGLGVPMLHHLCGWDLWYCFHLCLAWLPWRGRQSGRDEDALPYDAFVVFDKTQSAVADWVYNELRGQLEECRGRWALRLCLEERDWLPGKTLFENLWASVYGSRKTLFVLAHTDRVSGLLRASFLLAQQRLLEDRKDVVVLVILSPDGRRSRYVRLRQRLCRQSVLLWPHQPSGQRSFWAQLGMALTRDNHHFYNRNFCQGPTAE
Briefly: Antagonist activity at TLR9 in human PBMC assessed as inhibition of ODN2216-induced IFNalpha production preincubated for 30 mins followed by ODN2216 addition and measured after 20 hrs by alphaLISA. The class given is cell-based. In general terms: Bead proximity is the source of the signal in Alpha formats.

Assay [2] deals with Toll-like receptor 5 (Homo sapiens, UniProt O60602). The experiment in a line: Antagonist activity at TLR5 in human PBMC assessed as inhibition of flagellin-induced TNFalpha production preincubated for 30 mins followed by flagellin addition and measured after 20 hrs by HTRF assay. The class given is cell-based.
Assay [3] has as its target T2, Interleukin-1 receptor type 1 (Homo sapiens, UniProt P14778).
T2 sequence (P14778 whole entry): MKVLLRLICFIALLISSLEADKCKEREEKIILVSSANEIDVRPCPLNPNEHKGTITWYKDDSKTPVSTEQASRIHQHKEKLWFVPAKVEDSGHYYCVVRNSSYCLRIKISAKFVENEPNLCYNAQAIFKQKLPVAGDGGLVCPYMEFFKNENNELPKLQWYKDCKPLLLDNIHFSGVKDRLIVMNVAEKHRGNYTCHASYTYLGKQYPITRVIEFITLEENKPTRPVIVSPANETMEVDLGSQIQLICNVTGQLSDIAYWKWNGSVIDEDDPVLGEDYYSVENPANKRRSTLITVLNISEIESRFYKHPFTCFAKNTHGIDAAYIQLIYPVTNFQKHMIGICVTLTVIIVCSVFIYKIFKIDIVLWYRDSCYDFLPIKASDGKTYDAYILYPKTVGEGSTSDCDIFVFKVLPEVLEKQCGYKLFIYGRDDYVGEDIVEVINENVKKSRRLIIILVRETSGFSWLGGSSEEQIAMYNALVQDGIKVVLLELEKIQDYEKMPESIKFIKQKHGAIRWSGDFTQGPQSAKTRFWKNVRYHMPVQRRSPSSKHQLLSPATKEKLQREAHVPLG
Briefly: Antagonist activity at IL1R in human PBMC assessed as inhibition of IL1beta-induced TNFalpha production preincubated for 30 mins followed by IL1beta addition and measured after 20 hrs by HTRF assay. The class given is cell-based. (In general: Time-resolved FRET reads energy transfer from a long-lived donor to a nearby acceptor.)

The target of assay [4] is Cytochrome P450 3A4 (Homo sapiens, UniProt P08684). Briefly: Inhibition of CYP3A4 (unknown origin). Type of assay: ADME.
For assay [5], the target named is T3, Toll-like receptor 1 (Homo sapiens, UniProt Q15399).
T3 sequence (Q15399 whole entry): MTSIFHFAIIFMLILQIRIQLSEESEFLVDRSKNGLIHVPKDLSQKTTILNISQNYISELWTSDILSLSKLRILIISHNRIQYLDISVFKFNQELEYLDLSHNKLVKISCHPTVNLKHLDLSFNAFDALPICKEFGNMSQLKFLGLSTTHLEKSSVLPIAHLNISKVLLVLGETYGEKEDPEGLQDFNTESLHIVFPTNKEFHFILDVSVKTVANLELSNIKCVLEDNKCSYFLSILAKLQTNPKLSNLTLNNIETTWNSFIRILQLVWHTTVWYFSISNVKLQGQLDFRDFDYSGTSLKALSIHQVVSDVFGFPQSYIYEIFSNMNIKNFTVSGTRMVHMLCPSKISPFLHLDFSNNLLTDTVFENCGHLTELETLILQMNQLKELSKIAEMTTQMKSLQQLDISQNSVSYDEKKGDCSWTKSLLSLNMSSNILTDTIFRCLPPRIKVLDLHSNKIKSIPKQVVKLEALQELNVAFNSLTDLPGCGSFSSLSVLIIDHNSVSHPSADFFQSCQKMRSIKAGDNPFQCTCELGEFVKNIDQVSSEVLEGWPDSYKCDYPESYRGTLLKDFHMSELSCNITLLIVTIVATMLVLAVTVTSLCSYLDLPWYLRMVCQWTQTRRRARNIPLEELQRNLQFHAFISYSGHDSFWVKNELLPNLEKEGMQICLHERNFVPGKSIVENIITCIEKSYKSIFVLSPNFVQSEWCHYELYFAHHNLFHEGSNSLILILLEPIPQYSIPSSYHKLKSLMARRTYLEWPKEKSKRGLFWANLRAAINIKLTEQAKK
The experiment in a line: Antagonist activity at TLR1 in human PBMC assessed as inhibition of Pam3CSK4-induced TNFalpha production preincubated for 30 mins followed by Pam3CSK4 addition and measured after 20 hrs by HTRF assay. Type of assay: cell-based.

The target in assay [6] is Toll-like receptor 4 (Homo sapiens, UniProt O00206). Briefly: Antagonist activity at TLR4 in human PBMC assessed as inhibition of LPS-induced TNFalpha production preincubated for 30 mins followed by LPS addition and measured after 20 hrs by HTRF assay. The class given is cell-based.
Chain of Toll-like receptor 4 (O00206 whole entry): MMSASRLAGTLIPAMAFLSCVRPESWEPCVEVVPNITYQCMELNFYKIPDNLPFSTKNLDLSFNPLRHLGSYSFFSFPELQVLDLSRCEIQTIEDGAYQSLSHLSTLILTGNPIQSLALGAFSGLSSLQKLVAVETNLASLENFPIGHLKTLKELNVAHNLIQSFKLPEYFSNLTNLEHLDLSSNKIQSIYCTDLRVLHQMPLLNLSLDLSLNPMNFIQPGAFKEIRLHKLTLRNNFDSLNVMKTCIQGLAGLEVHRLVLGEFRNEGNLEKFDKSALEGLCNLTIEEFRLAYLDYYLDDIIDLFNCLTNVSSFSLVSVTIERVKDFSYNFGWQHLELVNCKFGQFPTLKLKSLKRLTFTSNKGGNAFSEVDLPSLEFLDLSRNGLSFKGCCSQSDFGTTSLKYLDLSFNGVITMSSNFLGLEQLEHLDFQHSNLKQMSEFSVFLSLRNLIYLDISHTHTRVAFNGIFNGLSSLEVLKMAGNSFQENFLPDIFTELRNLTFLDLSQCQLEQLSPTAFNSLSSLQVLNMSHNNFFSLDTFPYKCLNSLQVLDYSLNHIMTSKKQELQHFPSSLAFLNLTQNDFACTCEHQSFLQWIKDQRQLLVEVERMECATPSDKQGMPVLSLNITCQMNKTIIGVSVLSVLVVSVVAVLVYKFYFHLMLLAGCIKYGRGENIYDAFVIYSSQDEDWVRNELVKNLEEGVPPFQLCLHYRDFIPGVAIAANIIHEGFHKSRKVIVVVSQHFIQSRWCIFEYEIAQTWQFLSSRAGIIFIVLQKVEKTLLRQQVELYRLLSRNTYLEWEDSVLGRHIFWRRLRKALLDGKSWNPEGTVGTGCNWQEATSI

Chain of Toll-like receptor 5 (O60602 whole entry): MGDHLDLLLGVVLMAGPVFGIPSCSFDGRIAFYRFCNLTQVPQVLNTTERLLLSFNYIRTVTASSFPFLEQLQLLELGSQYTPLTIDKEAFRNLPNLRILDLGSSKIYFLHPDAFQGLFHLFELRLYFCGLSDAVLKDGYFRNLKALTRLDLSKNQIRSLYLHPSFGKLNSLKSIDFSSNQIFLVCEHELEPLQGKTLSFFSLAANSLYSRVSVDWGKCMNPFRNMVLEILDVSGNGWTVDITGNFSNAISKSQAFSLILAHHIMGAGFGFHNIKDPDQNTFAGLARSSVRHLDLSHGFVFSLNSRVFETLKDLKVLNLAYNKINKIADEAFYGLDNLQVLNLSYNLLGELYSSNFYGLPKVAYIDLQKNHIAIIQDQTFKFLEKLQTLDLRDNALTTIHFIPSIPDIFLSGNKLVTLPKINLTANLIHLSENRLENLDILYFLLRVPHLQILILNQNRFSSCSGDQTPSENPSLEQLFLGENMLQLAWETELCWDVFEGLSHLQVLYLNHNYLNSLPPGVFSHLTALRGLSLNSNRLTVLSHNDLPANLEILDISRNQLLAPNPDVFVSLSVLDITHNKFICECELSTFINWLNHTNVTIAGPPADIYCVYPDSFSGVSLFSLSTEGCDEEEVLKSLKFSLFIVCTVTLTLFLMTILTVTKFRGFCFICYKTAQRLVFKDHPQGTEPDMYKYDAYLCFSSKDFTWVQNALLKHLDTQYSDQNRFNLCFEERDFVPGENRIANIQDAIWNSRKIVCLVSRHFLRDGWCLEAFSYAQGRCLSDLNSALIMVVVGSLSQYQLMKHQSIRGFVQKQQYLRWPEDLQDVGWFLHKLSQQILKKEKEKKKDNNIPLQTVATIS
Chain of Cytochrome P450 3A4 (P08684 whole entry): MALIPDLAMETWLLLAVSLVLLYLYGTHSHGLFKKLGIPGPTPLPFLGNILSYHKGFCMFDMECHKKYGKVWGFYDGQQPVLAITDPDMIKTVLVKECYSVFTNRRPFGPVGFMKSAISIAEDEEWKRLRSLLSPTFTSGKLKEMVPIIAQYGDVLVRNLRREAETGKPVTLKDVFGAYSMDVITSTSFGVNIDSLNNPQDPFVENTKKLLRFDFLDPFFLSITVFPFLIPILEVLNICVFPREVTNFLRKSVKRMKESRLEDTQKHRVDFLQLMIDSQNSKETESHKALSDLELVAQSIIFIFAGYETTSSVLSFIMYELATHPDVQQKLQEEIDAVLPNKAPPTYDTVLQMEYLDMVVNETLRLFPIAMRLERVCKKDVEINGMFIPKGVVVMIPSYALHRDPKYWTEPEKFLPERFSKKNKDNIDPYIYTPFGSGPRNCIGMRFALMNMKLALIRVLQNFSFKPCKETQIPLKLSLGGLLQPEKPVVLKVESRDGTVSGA

As to `O=c1ccc(-c2cc(C(F)(F)F)c3nn([C@H]4CCNC[C@@H]4F)cc3c2)c2n1CCC2`, the half-inhibitory concentration (IC50) in assay [1] is above 5.3 µM; in assay [2], above 6.5 µM; in assay [3], above 6.5 µM; in assay [4], above 25 µM; in assay [5], above 6.5 µM; in assay [6], above 6.5 µM.
